Measurements taken from US7790762B2, “Compounds and methods for thiol-containing compound efflux and cancer treatment” (National Jewish Health, priority 2002, dated 2010).
Read-outs that look alike come from different tables or passages of the source. Marks after values point to notes of the source that are not given here.

Columns and labels:
epithelial cells = assay: Effects of compounds on extracellular GSH transport (Table 3); assay type: cell-based
A549 cells [1] = assay: Intracellular GSH levels by HPLC-EC in A549 cells; assay type: cell-based, human; settings: for activity at 50 µM / activity at 25 µM: Homo sapiens; for activity at 50 µM: A549, 50 μM
Method: (§1) Cell lines and culture conditions. Human lung epithelial cancer (A549), human leukemia HL-60 and human prostate (PC-3) tumor cells were purchased from ATCC (Manassas, Va.). A549 and PC-3 cells were grown in Ham's F12 medium (F12) and Kaighn's modification of Ham's F12 medium (F12K) with 2 mM L-glutamine (ATCC), respectively, supplemented with 10% fetal bovine serum (FBS) and 5% pen/strep (10,000 unit, Cellgro). HL-60 cells were grown in Iscove's modified Dulbecco's medium with 4 mM L-glutamine (ATCC) supplemented with 20% FBS and 5% pen/strep. Cell were grown in T-75 flask at 37° C. and 5% CO2 air atmosphere and in 24-well plates for GSH levels and LDH release measurements.
(§2) Intracellular levels of GSH. Intracellular GSH levels can be determined by HPLC-EC. Cultured cells from 24-well plates were washed once with 1 ml of PBS and then re-suspended in 0.5 ml of distilled water with 40 μM of digitonin (2 mM stock solution in DMSO) for 30 min at room temperature. Then, 50 μl of 10% meta-phosphoric acid were added (1% final concentration), the samples were sonicated for 2 min, centrifuged at 20,000 g for 10 min, and 0.2 ml of supernatant placed in vials for HPLC analysis. […] The flow rate was […]. The retention time for GSH in these conditions was 7.5 min. The HPLC instrument was from ESA, Inc. (Chelmsford, Mass.), equipped with an autosampler (model 540) and a Coul array detector (model 5600A). The potential applied was +0.75 V vs. H/Pd electrode, and the injection volume 5 μl.

HL-60 cells [2] = assay: Intracellular GSH levels by HPLC-EC in HL-60 cells; assay type: cell-based, human; settings: for activity at 25 µM: HL-60, 25 μM
Method: as §1, §2

A549 cells [3] = assay: Cytotoxicity as LDH release in A549 cells; assay type: cell-based, human; settings: 48 hours treatment; for LDH release, % of control at 50 µM: A549, 50 μM
Method: as §1
(§3) Assessment of cytotoxicity. In one exemplary method, membrane integrity of A549, HL-60 and PC-3 cells was used as an index of drug-induced cytotoxicity, and was assessed by monitoring the release of cytosolic lactate dehydrogenase (LDH). LDH activity was measured in the culture medium and cell lysates (50 mM HEPES, Triton X-100 0.5%, pH 7) using a plate reader format as previously described (41). Briefly, 5 μl of cell culture supernatant and lysates were incubated with 0.24 mM NADH in a Tris/NaCl pH 7.2 buffer in 96-well plates for 5 min at 25° C. The reaction was started by the addition of 9.8 mM pyruvate and the consumption of NADH followed at 340 nm for 5 min at 30° C. Percent LDH release was calculated by the following: (supernatant LDH/supernatant LDH+lysate LDH)×100.

HL-60 cells [4] = assay: Cytotoxicity as LDH release in HL-60 cells; assay type: cell-based, human; settings: for LDH release, % of control at 25 µM: HL-60, 25 μM
Method: as §1, §3

PC-3 cells [5] = assay: Cytotoxicity as LDH release in PC-3 cells; assay type: cell-based, human; settings: for LDH rel. % con. / LDH release, % of control at 50 µM: PC-3, 50 μM, 48 hours treatment; for LDH release, % of control at 50 µM: Homo sapiens, read-out: LDH rel. % con.
Method: as §1, §3

PC-3 cells [6] = assay: Intracellular GSH levels by HPLC-EC in PC-3 cells; assay type: cell-based, human; settings: for activity at 25 µM: Homo sapiens, read-out: Int. GSH % con.
Method: as §1, §2

HL-60 cells [7] = assay: Cellular superoxide by flow cytometry with hydroethidine in HL-60 cells; assay type: cell-based, human; settings: HL-60 cells, pre-treated 30 μM for 2 hours (FIG. 21B)
Method: Flow cytometry. In one exemplary method, cellular superoxide (O2^−) was measured by flow cytometry analysis using hydroethidine (HE) (30). Untreated and treated HL-60 cells (approximately 10^6) were exposed to HE (1 μM from 1 mM stock solutions in DMSO) for 30 min, then were centrifuged at 3,500 g for 15 min, and washed once with 1 ml ice-cold PBS. Cells were re-suspended in 0.5 ml ice-cold PBS, and HE oxidation product, i.e., ethidium bromide (EB), analyzed within 30 min using the red channel (PE) of a FACSCalibur flow cytometer from Becton Dickinson Biosciences (San Jose, Calif.). The total number of cell counts was 25,000.

[8] = HL-60, 50 μM, 48 hours treatment
[9] = 24 hours treatment, read-out: Int. GSH % con.
[10] = Homo sapiens, 24 hours treatment, read-out: Int. GSH % con.
[11] = PC-3, 25 μM, 24 hours treatment
[12] = Homo sapiens, read-out: LDH rel. % con.
[13] = Homo sapiens, 48 hours treatment, read-out: LDH rel. % con.
[14] = Epithelial cell, 100 μM, read-out: % Increase Over Control (extracellular GSH)

C[C@@H]1O[C@@H](OC[C@H]2O[C@@H](Oc3c(-c4ccc(O)c(O)c4)oc4cc(O)cc(O)c4c3=O)[C@H](O)[C@@H](O)[C@@H]2O)[C@H](O)[C@H](O)[C@H]1O [Rutin]
% Increase Over Control (extracellular GSH) (epithelial cells; 100 μM): 160 ^b %
Int. GSH % con. (A549 cells [1]; A549, 75 μM, 24 hours treatment): 86 % con.
Int. GSH % con. (HL-60 cells [2]; HL-60, 75 μM, 24 hours treatment): 98 % con.
LDH rel. % con. (A549 cells [3]; A549, 75 μM): 187 % con.
LDH rel. % con. (HL-60 cells [4]; [8]): 98 % con.
LDH rel. % con. (PC-3 cells [5]): 95 % con.

COc1ccc(CCN(C)CCCC(C#N)(c2ccc(OC)c(OC)c2)C(C)C)cc1OC (racemic) [Verapamil, (±)-verapamil, reference compound]
activation at 10 µM (epithelial cells; Epithelial cell, 10 μM, read-out: % Increase Over Control (extracellular GSH)): 113%
activity at 50 µM (A549 cells [1]; [9]): 14%
activity at 25 µM (HL-60 cells [2]; [10]): 63%
activity at 25 µM (PC-3 cells [6]; [11]): 72%
LDH release, % of control at 50 µM (A549 cells [3]; [12]): 130%
LDH release, % of control at 25 µM (HL-60 cells [4]; [13]): 125%
LDH release, % of control at 50 µM (PC-3 cells [5]): 93%

Nc1ccc(C(=O)O)c(O)c1 [p-Aminosalicylic Acid, 4-amino-2-hydroxybenzoic acid, reference compound]
activation at 100 µM (epithelial cells; [14]): 414%

COc1ccccc1C(=O)O [Methylsalicylic Acid]
activation at 100 µM (epithelial cells; [14]): 169%

CC[n+]1ccccc1-c1c2nc(c(-c3cccc[n+]3CC)c3ccc([n-]3)c(-c3cccc[n+]3CC)c3nc(c(-c4cccc[n+]4CC)c4ccc1[n-]4)C=C3)C=C2.[Mn+3] [MnTE-2-PyP, Manganese(III) meso-tetrakis(N-ethylpyridinium-2-yl)porphyrin, reference compound]
effect on the toxicity of curcumin (25 μM), LDH release (HL-60 cells [4]; HL-60 cells, 48 hours, compound 25 μM (FIG. 20A)): attenuated
O2^− levels induced by curcumin after pre-treatment (HL-60 cells [7]): lower levels of O2^− were detected

COc1ccc([C@@H]2Sc3ccccc3N(CCN(C)C)C(=O)[C@@H]2OC(C)=O)cc1 [Diltiazem, reference compound]
activation at 100 µM (epithelial cells; [14]): 119%

O=c1cc(-c2ccccc2)oc2cc(O)ccc12 [7-HF, 7-Hydroxyflavone]
effect on intracellular GSH (words) (A549 cells [1]; A549 cells): almost as effective as chrysin
activity at 25 µM (A549 cells [1]; A549, 25 μM, 2 h, read-out: Intracellular GSH levels, % compared to control): 58.1 ± 1.4%
activity at 25 µM (A549 cells [1]; A549, 25 μM, 24 hours treatment, read-out: Int. GSH % con.): < 5%
activity at 50 µM (HL-60 cells [2]; Homo sapiens, HL-60, 50 μM, 24 hours treatment, read-out: Int. GSH % con.): 56%
activity at 25 µM (PC-3 cells [6]; [11]): 63%
LDH release, % of control at 75 µM (A549 cells [3]; Homo sapiens, A549, 75 μM, read-out: LDH rel. % con.): 113%
LDH release, % of control at 50 µM (HL-60 cells [4]; Homo sapiens, HL-60, 50 μM, 48 hours treatment, read-out: LDH rel. % con.): 113%
LDH release, % of control at 50 µM (PC-3 cells [5]): 96%

COc1cc([C@@H]2c3cc4c(cc3[C@@H](O[C@@H]3O[C@@H]5CO[C@@H](C)O[C@H]5[C@H](O)[C@H]3O)[C@H]3COC(=O)[C@H]23)OCO4)cc(OC)c1O [Etoposide, reference compound]
activity at 50 µM (A549 cells [1]; [9]): 55%
effect on intracellular GSH (words) (HL-60 cells [2]; HL-60 cells): relatively effective for depleting GSH
activity at 25 µM (HL-60 cells [2]; [10]): 7%
activity at 25 µM (PC-3 cells [6]; [11]): 83%
LDH release, % of control at 50 µM (A549 cells [3]; [12]): 294%
toxicity (HL-60 cells [4]; HL-60 cells): toxic
LDH release, % of control at 25 µM (HL-60 cells [4]; [13]): 290%
LDH release, % of control at 50 µM (PC-3 cells [5]): 124%

O=c1cc(-c2ccc(O)cc2)oc2cc(O)cc(O)c12 [Apigenin]
Intracellular GSH levels, % compared to control (A549 cells [1]; A549, 25 μM, 4 h): 17.1 ± 1.4%
Int. GSH % con. (A549 cells [1]; A549, 25 μM, 24 hours treatment): 9 % con.
Int. GSH % con. (HL-60 cells [2]; HL-60, 50 μM, 24 hours treatment): 66 % con.
Int. GSH % con. (PC-3 cells [6]; [11]): 32 % con.
effect on intracellular GSH (words) (PC-3 cells [6]; PC-3 cells): one active flavone-like structure for inducing GSH depletion
LDH rel. % con. (A549 cells [3]; A549, 75 μM): 284 % con.
LDH rel. % con. (HL-60 cells [4]; [8]): 259 % con.
LDH rel. % con. (PC-3 cells [5]): 142 % con.
effect on curcumin-induced toxicity, LDH release (PC-3 cells [5]; PC-3 cells, 48 hours (FIG. 20C)): potentiated the curcumin's toxicity, but unexpectedly less than chrysin
